Legend:
Format in all cases: in vivo
Poa annua [1] = assay: Herbicidal early post-emergence action (96-well microtiter plates), POAAN; details: 1900 g/ha, scored 9 to 12 days after treatment, 100% = plants have died, 0% = like untreated control plants
Text: (§1) In the examples and tables below, the following abbreviations are used: • Undesired Plants/Weeds: • ABUTH: Abutilon theophrasti • AGSTE: Agrostis tenuis • AMARE Amaranthus retroflexus • ECHCG: Echinochloa crus-galli • LOLRI: Lolium rigidum • MATIN: Matricaria inodora • POAAN: Poa annua • SETVI: Setaria viridis • STEME: Stellaria media A. Herbicidal Early Post-Emergence Action Seeds of monocotyledonous and dicotyledonous weed plants were placed in 96-well microtiter plates in quartz sand and grown in a climatized chamber under controlled growth conditions. 5 to 7 days after sowing, the test plants were treated at the cotyledon stage. The compounds according to the invention, formulated in the form of emulsion concentrates (EC), were applied with a water application rate of the equivalent of 2200 liters per hectare. After the test plants had been left to stand in the climatized chamber for 9 to 12 days under optimum growth conditions, the effect of the preparations was scored visually in comparison to untreated controls. Here, for example, 100% activity=the plants have died, 0% activity=like untreated control plants. Tables A1 to A2 below show the effects of selected compounds of the general formula (I) according to Table 1 above on various harmful plants and an application rate corresponding to 1900 g/ha, which were obtained by the experimental procedure mentioned above.

Agrostis tenuis = assay: Herbicidal early post-emergence action (96-well microtiter plates), AGSTE; details: 1900 g/ha, scored 9 to 12 days after treatment, 100% = plants have died, 0% = like untreated control plants
Text: as §1

Amaranthus retroflexus [2] = assay: Herbicidal post-emergence action (greenhouse pots), AMARE; details: 1280 g/ha, visual rating about 3 weeks after treatment vs untreated controls
Text: In the examples and tables below, the following abbreviations are used: • Undesired Plants/Weeds: • ABUTH: Abutilon theophrasti • AGSTE: Agrostis tenuis • AMARE Amaranthus retroflexus • ECHCG: Echinochloa crus-galli • LOLRI: Lolium rigidum • MATIN: Matricaria inodora • POAAN: Poa annua • SETVI: Setaria viridis • STEME: Stellaria media A. Herbicidal Early Post-Emergence Action Seeds of mono- and dicotyledonous weed plants were placed in plastic pots in sandy loam soil (doubly sown with in each case one species of mono- or dicotyledonous weed plants per pot), covered with soil and cultivated in a greenhouse under controlled growth conditions. 2 to 3 weeks after sowing, the test plants were treated at the one-leaf stage. The compounds of the invention, formulated in the form of wettable powders (WP) or as emulsion concentrates (EC), were applied onto the green parts of the plants as aqueous suspension or emulsion with addition of 0.5% additive at a water application rate of 600 liters per hectare (converted). After the test plants had been kept in the greenhouse under optimum growth conditions for about 3 weeks, the activity of the preparations was rated visually in comparison to untreated controls. For example, 100% activity=the plants have died, 0% activity=like untreated control plants. Tables B1-B8 below show the effects of selected compounds of the general formula (I) according to Table 1 above on various harmful plants and an application rate corresponding to 1280 g/ha, which were obtained by the experimental procedure mentioned above.

Setaria viridis = assay: Herbicidal pre-emergence action (greenhouse pots), SETVI; details: 1280 g/ha, visual scoring after about 3 weeks vs untreated controls
Text: (§2) In the examples and tables below, the following abbreviations are used: • Undesired Plants/Weeds: • ABUTH: Abutilon theophrasti • AGSTE: Agrostis tenuis • AMARE Amaranthus retroflexus • ECHCG: Echinochloa crus-galli • LOLRI: Lolium rigidum • MATIN: Matricaria inodora • POAAN: Poa annua • SETVI: Setaria viridis • STEME: Stellaria media A. Herbicidal Early Post-Emergence Action Seeds of mono- and dicotyledonous weed plants were placed in plastic pots in sandy loam soil (doubly sown with one species each of mono- or dicotyledonous weed plants per pot) and covered with soil. The compounds of the invention, formulated in the form of wettable powders (WP) or as emulsion concentrates (EC), were then applied onto the surface of the covering soil as aqueous suspension or emulsion with addition of 0.5% additive at a water application rate of 600 liters per hectare (converted). After the treatment, the pots were placed in a greenhouse and kept under good growth conditions for the test plants. After about 3 weeks, the effect of the preparations was scored visually in comparison with untreated controls as percentages. For example, 100% activity=the plants have died, 0% activity=like untreated control plants. Tables C1-C8 below show the effects of selected compounds of the general formula (I) according to Table 1 above on various harmful plants and an application rate corresponding to 1280 g/ha, which were obtained by the experimental procedure mentioned above.

Stellaria media = assay: Herbicidal pre-emergence action (greenhouse pots), STEME; details: 1280 g/ha, visual scoring after about 3 weeks vs untreated controls
Text: as §2

Amaranthus retroflexus [3] = assay: Herbicidal pre-emergence action (greenhouse pots), AMARE; details: 1280 g/ha, visual scoring after about 3 weeks vs untreated controls
Text: as §2

Poa annua [4] = assay: Herbicidal pre-emergence action (greenhouse pots), POAAN; details: 1280 g/ha, visual scoring after about 3 weeks vs untreated controls
Text: as §2

Structure (SMILES) | POAAN (herbicidal activity, scored visually in comparison to untreated controls) (Poa annua [1]) [%] | AGSTE (herbicidal activity, scored visually in comparison to untreated controls) (Agrostis tenuis) [%] | herbicidal activity AMARE (Amaranthus retroflexus [2]) [%] | herbicidal activity SETVI (Setaria viridis) [%] | herbicidal activity STEME (Stellaria media) [%] | herbicidal activity AMARE (Amaranthus retroflexus [3]) [%] | herbicidal activity POAAN (Poa annua [4]) [%]
Nc1c([N+](=O)[O-])cc(Nc2ncc(Cl)cn2)c(Oc2ccc(F)cc2)c1Cl [Example 2-101, 2-Chloro-4-(5-chloropyrimidin-2-ylamino)-3-(4-fluorophenoxy)-6-nitroaniline] | 80 | 100 | – | – | – | – | –
N#Cc1cccc(Nc2ccc(Cl)cn2)c1Oc1ccc(F)c(F)c1 [Example 1-129] | – | 100 | 100 | 90 | 90 | – | –
N#Cc1ccc(Nc2cccc(C#N)c2Oc2ccc(F)cc2)nc1 [Example 1-145] | 80 | – | – | – | – | 90 | –
N#Cc1cccc(Nc2ncc(Cl)cn2)c1Oc1cc(F)ccc1F [Example 1-290] | – | 80 | 100 | – | – | 90 | 90
Cc1ccc(Nc2cccc(C#N)c2Oc2ccc(F)cc2)nc1 [Example 1-149] | – | 100 | 100 | – | – | 100 | –
CC(C)Oc1ccc(Nc2cccc(C#N)c2Oc2ccc(F)cc2)nc1 [Example 1-342] | – | – | 100 | 100 | – | 100 | –
Fc1ccc(Oc2c(Cl)cccc2Nc2ccc(Cl)cn2)cc1 [Example 1-75] | 80 | 100 | – | – | – | – | –
N#Cc1cccc(Nc2ncccn2)c1Oc1cc(F)ccc1F [Example 1-252] | – | – | – | – | – | 90 | –
CN(C)c1cccc(Nc2ncc(Cl)cn2)c1Oc1ccc(F)cc1 [Example 1-366] | 80 | 100 | – | – | – | – | –
N#Cc1cccc(Nc2ncccn2)c1Oc1cc(F)cc(F)c1 [Example 1-254] | – | – | 100 | 100 | – | 100 | 90
N#Cc1cccc(Nc2ncc(F)cn2)c1Oc1ccccc1F [Example 1-265] | – | 80 | 100 | 90 | 100 | 100 | 100
Fc1ccc(Oc2c(F)cccc2Nc2ccc(Cl)cn2)cc1 [Example 1-40] | 80 | 80 | – | – | – | – | –
COc1cccc(Nc2ncc(Cl)cn2)c1Oc1ccc(F)cc1 [Example 1-324] | 80 | 100 | – | – | – | – | –
CCSc1cccc(Nc2ncc(Cl)cn2)c1Oc1ccc(F)cc1 [Example 1-376] | 80 | 80 | – | – | – | – | –
N#Cc1cccc(Nc2ncc(F)cn2)c1Oc1cc(F)cc(F)c1 [Example 1-273] | – | 80 | 100 | 90 | – | 100 | –
N#Cc1cccc(Nc2ncc(Cl)cn2)c1Oc1cccc(Cl)c1 [Example 1-287] | – | 80 | 100 | 100 | – | 100 | 100

Structure (SMILES) | POAAN (herbicidal activity, scored visually in comparison to untreated controls) (Poa annua [1]) [%] | AGSTE (herbicidal activity, scored visually in comparison to untreated controls) (Agrostis tenuis) [%] | herbicidal activity AMARE (Amaranthus retroflexus [2]) [%] | herbicidal activity SETVI (Setaria viridis) [%] | herbicidal activity STEME (Stellaria media) [%] | herbicidal activity AMARE (Amaranthus retroflexus [3]) [%] | herbicidal activity POAAN (Poa annua [4]) [%]
Fc1ccc(Oc2c(Br)cccc2Nc2ncc(Cl)cn2)cc1 [Example 1-358] | 100 | 100 | – | – | – | – | –
N#Cc1ccc(Nc2cccc(C#N)c2Oc2ccc(F)c(F)c2)nc1 [Example 1-146] | – | 80 | – | – | – | – | –
N#Cc1cccc(Nc2ncc(F)cn2)c1Oc1cc(F)ccc1F [Example 1-271] | 80 | 80 | 100 | 90 | – | 100 | 90
N#Cc1cccc(Nc2ccc(Cl)cn2)c1Oc1ccc(F)cc1 [Example 1-124] | 100 | 100 | 100 | – | – | – | –
CNc1cccc(Nc2ncc(Cl)cn2)c1Oc1ccc(F)cc1 [Example 1-365] | – | 100 | – | – | – | – | –
N#Cc1cccc(Nc2ncc(Cl)cn2)c1Oc1ccccc1F [Example 1-284] | 100 | 100 | 100 | 100 | 90 | 100 | –
Clc1ccc(Oc2c(Cl)cccc2Nc2ncc(Cl)cn2)cc1 [Example 1-341] | 100 | 100 | 100 | – | 90 | – | –
N#Cc1cccc(Nc2ncc(Cl)cn2)c1Oc1cc(F)cc(F)c1 [Example 1-292] | 80 | 100 | 100 | 90 | – | 100 | –
N#Cc1cccc(Nc2ccc(Br)cn2)c1Oc1ccc(F)c(F)c1 [Example 1-144] | 100 | 100 | – | – | – | – | –
N#Cc1cccc(Nc2ncccn2)c1Oc1ccccc1F [Example 1-246, 2-(2-Fluorophenoxy)-3-(pyrimidin-2-ylamino)benzonitrile] | – | 80 | 100 | 100 | 100 | 100 | –
N#Cc1cccc(Nc2ncc(Cl)cn2)c1Oc1cccc(C(F)(F)F)c1 [Example 1-297] | 80 | 100 | 100 | 100 | – | – | –
CSc1cccc(Nc2ncc(Cl)cn2)c1Oc1ccc(F)cc1 [Example 1-328] | 80 | 80 | – | – | – | – | –
COc1cccc(Oc2c(C#N)cccc2Nc2ncc(F)cn2)c1 [Example 1-281] | – | 100 | – | – | – | – | –
Cc1cccc(Nc2ccc(Cl)cn2)c1Oc1ccc(F)cc1 [Example 1-79] | 100 | 80 | – | – | – | – | 100
N#Cc1cccc(Nc2ccc(Br)cn2)c1Oc1ccc(F)cc1 [Example 1-143] | – | 80 | – | – | – | – | –
